pIC50: −log10 of the molar value.
Experiments:
Format in all cases: biochemical
CDK1/Cyclin B1 = CDK1/Cyclin B1 (Homo sapiens, UniProt P06493); experiment: CDK1/Cyclin B1 kinase assay (Nanosyn, Caliper microfluidic); conditions: 12-point dose-response, ATP at Km (40 μM), 3 hr
Outline: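 Mobility-shift microfluidic kinase assay, 12-point dose-response in singlicate. Conditions: 0.08 nM enzyme, 40 μM ATP (Km), 1 μM peptide substrate, 3 hr incubation; staurosporine as reference.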

CDK2/Cyclin A = CDK2/Cyclin A (Homo sapiens, UniProt P24941); experiment: CDK2/Cyclin A kinase assay (Nanosyn, Caliper microfluidic); conditions: 12-point dose-response, ATP at Km (50 μM), 3 hr
Outline: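 Caliper microfluidic mobility-shift read-out; 0.1 nM enzyme, 50 μM ATP (Km), 1 μM peptide substrate, 3 hr incubation. 12-point dose-response in singlicate; staurosporine as reference.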

CDK2/Cyclin E = CDK2/Cyclin E (Homo sapiens, UniProt P24941); experiment: CDK2/Cyclin E kinase assay (Nanosyn, Caliper microfluidic); conditions: 12-point dose-response, ATP at Km (100 μM), 3 hr
Outline: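 Caliper microfluidic mobility-shift readout of phosphorylation of 1 μM substrate peptide by 0.15 nM enzyme at 100 μM ATP (stated as Km), 3 hr incubation. 12-point dose-response in singlicate, staurosporine as reference.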

CDK3/Cyclin E = CDK3/Cyclin E (Homo sapiens, UniProt Q00526); experiment: CDK3/Cyclin E kinase assay (Nanosyn, Caliper microfluidic); conditions: 12-point dose-response, ATP at Km (400 μM), 3 hr
Outline: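 Caliper microfluidic mobility-shift read-out with 1 nM enzyme, 400 μM ATP (stated as Km) and 1 μM peptide substrate, 3 hr incubation. Compounds run as 12-point dose-response in singlicate.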

CDK4/Cyclin D1 = CDK4/Cyclin D1 (Homo sapiens, UniProt P11802); experiment: CDK4/Cyclin D1 kinase assay (Nanosyn, Caliper microfluidic); conditions: 12-point dose-response, ATP at Km (200 μM), 3 hr; Table 4
Outline: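 Caliper microfluidic mobility-shift read-out, 12-point dose-response in singlicate. 1 nM enzyme, 200 μM ATP (Km), 1 μM peptide substrate, 3 hr incubation; staurosporine as reference.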

CDK5/p35 = CDK5/p35 (Homo sapiens, UniProt Q00535); experiment: CDK5/p35 kinase assay (Nanosyn, Caliper microfluidic); conditions: 12-point dose-response, ATP at Km (20 μM), 3 hr
Sequence of CDK5/p35 (Q00535 whole entry): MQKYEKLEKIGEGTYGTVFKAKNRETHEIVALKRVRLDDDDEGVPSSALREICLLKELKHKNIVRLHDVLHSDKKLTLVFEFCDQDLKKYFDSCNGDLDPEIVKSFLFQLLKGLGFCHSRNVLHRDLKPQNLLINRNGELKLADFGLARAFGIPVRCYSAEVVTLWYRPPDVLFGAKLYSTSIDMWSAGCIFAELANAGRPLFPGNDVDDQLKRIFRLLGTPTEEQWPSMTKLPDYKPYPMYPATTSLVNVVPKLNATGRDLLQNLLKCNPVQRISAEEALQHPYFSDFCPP
Sequence of CDK5/p35 (Q15078 whole entry partner): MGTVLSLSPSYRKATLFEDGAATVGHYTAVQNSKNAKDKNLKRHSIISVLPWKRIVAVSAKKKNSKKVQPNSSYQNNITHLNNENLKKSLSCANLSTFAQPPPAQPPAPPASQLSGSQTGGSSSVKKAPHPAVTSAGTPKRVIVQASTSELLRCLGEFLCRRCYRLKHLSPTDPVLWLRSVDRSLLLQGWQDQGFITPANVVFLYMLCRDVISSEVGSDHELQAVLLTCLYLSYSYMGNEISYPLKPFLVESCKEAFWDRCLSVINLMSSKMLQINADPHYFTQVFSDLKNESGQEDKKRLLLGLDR
Outline: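 Microfluidic mobility-shift kinase assay with 0.05 nM CDK5/p35, 20 μM ATP (Km) and 1 μM peptide substrate, 3 hr incubation. Compounds tested as 12-point dose–response in singlicate; staurosporine as reference.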

CDK5/p25 = CDK5/p25 (Homo sapiens, UniProt Q00535); experiment: CDK5/p25 kinase assay (Nanosyn, Caliper microfluidic); conditions: 12-point dose-response, ATP at Km (20 μM), 3 hr
Sequence of CDK5/p25 (Q00535 whole entry): as the sequence (Q00535 whole entry) above
Sequence of CDK5/p25 (Q15078 99-307 partner limits assumed): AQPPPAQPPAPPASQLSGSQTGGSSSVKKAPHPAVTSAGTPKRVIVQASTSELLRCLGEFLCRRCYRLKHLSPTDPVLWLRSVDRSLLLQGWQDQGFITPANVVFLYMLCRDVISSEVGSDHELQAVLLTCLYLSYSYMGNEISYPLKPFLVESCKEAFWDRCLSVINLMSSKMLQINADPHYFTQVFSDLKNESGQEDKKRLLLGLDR
Outline: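 Caliper microfluidic mobility-shift assay, 12-point dose-response in singlicate. CDK5/p25 at 0.1 nM with 20 μM ATP (Km) and 1 μM peptide substrate. Incubation 3 hr.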

CDK6/Cyclin D3 = CDK6/Cyclin D3 (Homo sapiens, UniProt Q00534); experiment: CDK6/Cyclin D3 kinase assay (Nanosyn, Caliper microfluidic); conditions: 12-point dose-response, ATP at Km (300 μM), 3 hr
Sequence of CDK6/Cyclin D3 (Q00534 whole entry): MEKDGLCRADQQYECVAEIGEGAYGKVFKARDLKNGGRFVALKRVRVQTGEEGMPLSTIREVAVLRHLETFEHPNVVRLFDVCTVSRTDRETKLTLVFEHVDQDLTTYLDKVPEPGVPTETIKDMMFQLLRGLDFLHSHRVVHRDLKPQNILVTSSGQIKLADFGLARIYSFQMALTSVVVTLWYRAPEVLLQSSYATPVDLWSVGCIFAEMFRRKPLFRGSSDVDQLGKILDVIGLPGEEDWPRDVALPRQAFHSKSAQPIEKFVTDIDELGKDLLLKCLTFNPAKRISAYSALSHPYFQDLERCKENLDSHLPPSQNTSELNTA
Sequence of CDK6/Cyclin D3 (P30281 whole entry partner): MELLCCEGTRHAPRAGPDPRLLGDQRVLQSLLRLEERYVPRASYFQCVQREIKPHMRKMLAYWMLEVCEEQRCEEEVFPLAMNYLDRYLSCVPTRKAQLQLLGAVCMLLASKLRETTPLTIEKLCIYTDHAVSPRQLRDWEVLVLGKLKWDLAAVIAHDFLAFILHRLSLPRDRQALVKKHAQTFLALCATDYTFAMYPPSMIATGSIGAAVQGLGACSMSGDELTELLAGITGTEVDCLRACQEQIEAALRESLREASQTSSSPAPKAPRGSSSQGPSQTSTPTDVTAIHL
Outline: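 Caliper microfluidic assay with 2 nM enzyme, 300 μM ATP and 1 μM phosphoacceptor peptide, incubated for 3 hr. Compounds were run as 12-point dose-response curves in singlicate.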

CDK7/Cyclin H = CDK7/Cyclin H (Homo sapiens, UniProt P50613); experiment: CDK7/Cyclin H kinase assay (Nanosyn, Caliper microfluidic); conditions: 12-point dose-response, ATP at Km (50 μM), 17 hr
Sequence of CDK7/Cyclin H (P50613 whole entry): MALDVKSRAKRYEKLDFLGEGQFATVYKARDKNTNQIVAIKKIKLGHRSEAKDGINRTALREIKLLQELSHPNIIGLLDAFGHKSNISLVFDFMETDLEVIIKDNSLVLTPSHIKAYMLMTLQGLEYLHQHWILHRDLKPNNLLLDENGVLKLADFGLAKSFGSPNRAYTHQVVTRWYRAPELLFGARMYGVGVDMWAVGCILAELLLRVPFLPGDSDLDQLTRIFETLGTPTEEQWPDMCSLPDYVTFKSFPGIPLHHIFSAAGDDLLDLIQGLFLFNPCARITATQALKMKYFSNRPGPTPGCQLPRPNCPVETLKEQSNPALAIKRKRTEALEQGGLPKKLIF
Sequence of CDK7/Cyclin H (P51946 whole entry partner): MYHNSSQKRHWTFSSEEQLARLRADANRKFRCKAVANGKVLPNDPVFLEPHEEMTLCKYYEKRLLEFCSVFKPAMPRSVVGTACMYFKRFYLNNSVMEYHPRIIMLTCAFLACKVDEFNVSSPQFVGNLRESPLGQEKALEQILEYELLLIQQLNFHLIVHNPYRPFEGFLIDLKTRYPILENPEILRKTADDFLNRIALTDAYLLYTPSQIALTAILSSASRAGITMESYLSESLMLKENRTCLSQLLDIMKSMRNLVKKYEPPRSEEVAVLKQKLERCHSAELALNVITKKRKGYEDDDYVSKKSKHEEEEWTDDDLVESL
Sequence of CDK7/Cyclin H (P51948 whole entry partner): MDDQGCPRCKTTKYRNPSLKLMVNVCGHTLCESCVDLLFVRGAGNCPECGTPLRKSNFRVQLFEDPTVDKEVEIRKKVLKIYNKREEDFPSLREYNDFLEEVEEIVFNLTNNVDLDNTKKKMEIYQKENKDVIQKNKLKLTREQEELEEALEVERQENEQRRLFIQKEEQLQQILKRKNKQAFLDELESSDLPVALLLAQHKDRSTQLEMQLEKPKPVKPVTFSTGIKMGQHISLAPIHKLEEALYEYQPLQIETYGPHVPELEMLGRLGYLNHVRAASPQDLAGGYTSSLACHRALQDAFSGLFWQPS
Outline: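 Caliper microfluidic mobility-shift assay with 10 nM CDK7/Cyclin H, 50 μM ATP (Km) and 1 μM peptide substrate, incubated 17 hr. Compounds run in 12-point dose-response, singlicate.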

CDK9/Cyclin T = CDK9/Cyclin T (Homo sapiens, UniProt P50750); experiment: CDK9/Cyclin T kinase assay (Nanosyn, Caliper microfluidic); conditions: 12-point dose-response, ATP at Km (10 μM), 17 hr; Table 5
Sequence of CDK9/Cyclin T (P50750 whole entry): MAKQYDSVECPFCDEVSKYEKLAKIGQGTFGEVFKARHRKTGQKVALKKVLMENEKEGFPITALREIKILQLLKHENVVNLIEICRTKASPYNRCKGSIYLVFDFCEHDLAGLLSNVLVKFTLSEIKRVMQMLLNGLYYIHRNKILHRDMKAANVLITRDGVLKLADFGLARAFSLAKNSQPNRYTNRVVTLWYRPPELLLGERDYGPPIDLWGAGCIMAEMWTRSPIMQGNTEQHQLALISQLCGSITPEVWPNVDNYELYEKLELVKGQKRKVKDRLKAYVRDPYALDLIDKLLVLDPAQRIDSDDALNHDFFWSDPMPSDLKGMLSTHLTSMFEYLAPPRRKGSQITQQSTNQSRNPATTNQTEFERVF
Sequence of CDK9/Cyclin T (O60563 whole entry partner): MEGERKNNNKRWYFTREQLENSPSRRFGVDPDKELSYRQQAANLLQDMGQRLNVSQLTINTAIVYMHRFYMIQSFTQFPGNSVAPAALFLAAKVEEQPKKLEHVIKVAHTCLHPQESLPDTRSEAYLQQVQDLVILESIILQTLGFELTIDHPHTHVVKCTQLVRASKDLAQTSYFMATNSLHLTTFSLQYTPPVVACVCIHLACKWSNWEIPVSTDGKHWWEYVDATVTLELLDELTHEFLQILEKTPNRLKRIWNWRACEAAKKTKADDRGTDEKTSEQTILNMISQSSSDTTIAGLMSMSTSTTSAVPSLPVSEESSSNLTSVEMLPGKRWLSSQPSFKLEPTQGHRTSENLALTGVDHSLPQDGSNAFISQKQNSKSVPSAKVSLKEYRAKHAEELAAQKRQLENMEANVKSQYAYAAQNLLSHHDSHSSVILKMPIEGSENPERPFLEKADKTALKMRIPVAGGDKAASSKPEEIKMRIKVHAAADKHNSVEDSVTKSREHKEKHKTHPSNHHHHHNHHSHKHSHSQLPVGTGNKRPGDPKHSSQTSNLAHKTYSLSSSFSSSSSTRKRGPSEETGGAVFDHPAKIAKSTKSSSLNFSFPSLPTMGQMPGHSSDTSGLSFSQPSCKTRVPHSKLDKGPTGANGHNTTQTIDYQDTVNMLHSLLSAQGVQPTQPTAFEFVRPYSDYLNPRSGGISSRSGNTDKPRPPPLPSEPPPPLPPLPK
Outline: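 Caliper microfluidic mobility-shift read-out, 12-point dose-response in singlicate at ATP Km with 1 μM peptide substrate; staurosporine reference.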

Sequence of CDK1/Cyclin B1 (P06493 whole entry): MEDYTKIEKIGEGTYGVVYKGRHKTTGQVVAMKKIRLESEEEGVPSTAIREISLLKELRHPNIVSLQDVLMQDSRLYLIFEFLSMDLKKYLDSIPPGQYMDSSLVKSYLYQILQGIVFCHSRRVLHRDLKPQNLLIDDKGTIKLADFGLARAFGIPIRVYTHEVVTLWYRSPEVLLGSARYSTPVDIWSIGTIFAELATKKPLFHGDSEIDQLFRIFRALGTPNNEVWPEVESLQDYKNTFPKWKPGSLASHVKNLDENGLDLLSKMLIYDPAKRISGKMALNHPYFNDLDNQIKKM
Sequence of CDK1/Cyclin B1 (P14635 whole entry partner): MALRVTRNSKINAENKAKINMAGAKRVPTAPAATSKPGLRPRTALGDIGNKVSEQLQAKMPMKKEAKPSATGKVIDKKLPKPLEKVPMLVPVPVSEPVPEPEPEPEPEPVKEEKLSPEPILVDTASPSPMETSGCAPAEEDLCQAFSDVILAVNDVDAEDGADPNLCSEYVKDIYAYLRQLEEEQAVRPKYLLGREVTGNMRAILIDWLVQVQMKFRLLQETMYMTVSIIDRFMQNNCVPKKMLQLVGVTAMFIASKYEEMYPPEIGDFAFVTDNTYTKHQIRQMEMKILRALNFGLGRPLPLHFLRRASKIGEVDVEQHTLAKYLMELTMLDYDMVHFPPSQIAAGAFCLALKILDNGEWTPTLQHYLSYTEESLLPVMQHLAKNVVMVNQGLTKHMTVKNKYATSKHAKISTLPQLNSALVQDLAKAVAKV

| pIC50 (CDK1/Cyclin B1) | pIC50 (CDK2/Cyclin A) | pIC50 (CDK2/Cyclin E) | pIC50 (CDK3/Cyclin E) | pIC50 (CDK4/Cyclin D1) | pIC50 (CDK5/p35) | pIC50 (CDK5/p25) | pIC50 (CDK6/Cyclin D3) | pIC50 (CDK7/Cyclin H) | pIC50 (CDK9/Cyclin T) | SMILES |
| --- | --- | --- | --- | --- | --- | --- | --- | --- | --- | --- |
| 5.06 | 5.44 | 5.24 | 4.80 | 7.44 | 5.01 | 4.96 | 5.92 | 5.74 | 7.10 | O=C1NCC2(CCCCC2)n2c1cc1cnc(N[C@H]3CCCN[C@@H]3c3ccccc3)nc12 [Compound 10, 2′-(((2R,3S)-2-phenylpiperidin-3-yl)amino)-7′,8′-dihydro-6′H-spiro[cyclohexane-1,9′-pyrazino[1′,2′:1,5]pyrrolo[2,3-d]pyrimidin]-6′-one] |
| 5.92 | 6.85 | 6.52 | 6.38 | 8.02 | 5.82 | 5.80 | 7.32 | 6.30 | 7.89 | CN1CCN([C@H]2CC[C@@H](Nc3ncc4cc5n(c4n3)C3(CCCCC3)CNC5=S)CC2)CC1 [Compound 39, 2′-(((1s,4s)-4-(4-methylpiperazin-1-yl)cyclohexyl)amino)-7′,8′-dihydro-6′H-spiro[cyclohexane-1,9′-pyrazino[1′,2′:1,5]pyrrolo[2,3-d]pyrimidine]-6′-thione] |
| 5.42 | 5.72 | 5.27 | 5.16 | 5.82 | 5.10 | 5.08 | 4.82 | 5.35 | 7.35 | C[C@H]1NCCC[C@H]1C(=O)Nc1ncc2cc3n(c2n1)C1(CCCCC1)CNC3=O [Compound 30, (2R,3R)-2-methyl-N-(6′-oxo-7′,8′-dihydro-6′H-spiro[cyclohexane-1,9′-pyrazino[1′,2′:1,5]pyrrolo[2,3-d]pyrimidin]-2′-yl)piperidine-3-carboxamide] |
| 7.21 | 7.00 | 6.96 | 7.77 | 7.64 | 7.29 | 7.40 | 7.10 | 8.00 | 8.47 | S=C1NCC2(CCCCC2)n2c1cc1cnc(N[C@H]3CCCNC3)nc12 [Compound 40, (S)-2′-(piperidin-3-ylamino)-7′,8′-dihydro-6′H-spiro[cyclohexane-1,9′-pyrazino[1′,2′:1,5]pyrrolo[2,3-d]pyrimidine]-6′-thione] |
| 5.80 | 6.05 | 6.31 | 6.21 | 6.54 | 5.82 | 5.82 | 5.96 | 6.64 | 6.70 | C1=NCC2(CCCCC2)n2c1cc1cnc(N[C@@H]3CCCNC3)nc12 [Compound 51, (R)-N-(piperidin-3-yl)-8′H-spiro[cyclohexane-1,9′-pyrazino[1′,2′:1,5]pyrrolo[2,3-d]pyrimidin]-2′-amine] |
| 5.36 | 5.51 | 4.89 | 5.14 | 5.54 | 4.52 | 4.46 | 4.55 | 4.89 | 8.26 | O=C1NCC2(CCCCC2)n2c1cc1cnc(NC(=O)[C@@H]3CCCNC3)nc12 [Compound 11, (R)-N-(6′-oxo-7′,8′-dihydro-6′H-spiro[cyclohexane-1,9′-pyrazino[1′,2′:1,5]pyrrolo[2,3-d]pyrimidin]-2′-yl)piperidine-3-carboxamide] |
| 5.82 | 6.17 | 6.32 | 6.07 | 5.54 | 5.82 | 5.82 | 5.05 | 5.34 | 6.05 | C[C@H]1CC[C@@H](Nc2ncc3cc4n(c3n2)C2(CCCCC2)CN=C4)CC1 [Compound 53, N-((1s,4s)-4-methylcyclohexyl)-8′H-spiro[cyclohexane-1,9′-pyrazino[1′,2′:1,5]pyrrolo[2,3-d]pyrimidin]-2′-amine] |
| 6.77 | 6.46 | 6.26 | 6.96 | 6.89 | 6.60 | 6.64 | 6.43 | 7.57 | 8.59 | O=C1NCC2(CCCCC2)n2c1cc1cnc(N[C@H]3CCCNC3)nc12 [Compound 47, (S)-2′-(piperidin-3-ylamino)-7′,8′-dihydro-6′H-spiro[cyclohexane-1,9′-pyrazino[1′,2′:1,5]pyrrolo[2,3-d]pyrimidin]-6′-one] |
| 6.51 | 6.85 | 6.66 | 6.54 | 7.85 | 6.46 | 6.49 | 7.15 | 6.96 | 8.68 | O=C1NCC2(CCCCC2)n2c1cc1cnc(N[C@H]3CC[C@H](NCc4cccnc4)CC3)nc12 [Compound 21, 2′-(((1,4-trans)-4-((pyridin-3-ylmethyl)amino)cyclohexyl)amino)-7′,8′-dihydro-6′H-spiro[cyclohexane-1,9′-pyrazino[1′,2′:1,5]pyrrolo[2,3-d]pyrimidin]-6′-one] |
| < 4.00 | 4.19 | < 4.00 | < 4.00 | 6.09 | < 4.00 | < 4.00 | 5.25 | < 4.00 | 5.47 | O=C1NCC2(CCCCC2)n2c1cc1cnc(N[C@H]3C[C@@H](O)CNC3=O)nc12 [Compound 7, 2′-(((3S,5R)-5-hydroxy-2-oxopiperidin-3-yl)amino)-7′,8′-dihydro-6′H-spiro[cyclohexane-1,9′-pyrazino[1′,2′:1,5]pyrrolo[2,3-d]pyrimidin]-6′-one] |
| 5.25 | 5.51 | 4.92 | 5.07 | 5.64 | 4.80 | 4.72 | 4.85 | 4.92 | 7.92 | O=C1NCC2(CCCCC2)n2c1cc1cnc(NC(=O)[C@@H]3CCNC3)nc12 [Compound 32, (R)-N-(6′-oxo-7′,8′-dihydro-6′H-spiro[cyclohexane-1,9′-pyrazino[1′,2′:1,5]pyrrolo[2,3-d]pyrimidin]-2′-yl)pyrrolidine-3-carboxamide] |
| 4.03 | 4.17 | < 4.00 | < 4.00 | 5.05 | < 4.00 | < 4.00 | < 4.00 | < 4.00 | 6.62 | O=C1NCC2(CCCCC2)n2c1cc1cnc(NC(=O)[C@H]3CNCC[C@H]3c3ccccc3)nc12 [Compound 28, (3R,4R)-N-(6′-oxo-7′,8′-dihydro-6′H-spiro[cyclohexane-1,9′-pyrazino[1′,2′:1,5]pyrrolo[2,3-d]pyrimidin]-2′-yl)-4-phenylpiperidine-3-carboxamide] |
| 4.74 | 4.92 | 4.57 | 4.48 | 5.54 | 4.54 | 4.28 | 5.08 | 4.77 | 6.72 | O=C(C[C@@H]1CCCN1)Nc1ncc2cc3n(c2n1)C1(CCCCC1)CNC3=O [Compound 34, (S)-N-(6′-oxo-7′,8′-dihydro-6′H-spiro[cyclohexane-1,9′-pyrazino[1′,2′:1,5]pyrrolo[2,3-d]pyrimidin]-2′-yl)-2-(pyrrolidin-2-yl)acetamide] |

Source: patent US20200331925A1, “HETEROCYCLIC COMPOUNDS FOR THE TREATMENT OF ABNORMAL CELLULAR PROLIFERATION” (G1 Therapeutics, Inc., priority 2018, published 2020)
